The series can be described thus: Partition coefficient of compound in octanol and water by Fragmental method of Leo/Hansch. In kind it is physicochemical.

Structures are written as SMILES.

In the case of `Cc1cc(O)c2c(c1)C(=O)c1cc(O)cc(O)c1C2=O` [EMODIN], the logP (usually the decadic logarithm of the partition coefficient of the neutral form, usually between octanol and water) is 2.87.

In the case of `Cc1cc(O)c2c(c1)C(=O)c1cccc(O)c1C2=O` [CHRYSOPHANOL], the logP was determined as 3.39.

Turning to `COc1cc(O)c2c(c1)C(=O)c1cc(C)cc(O)c1C2=O` [PHYSCION], the logP amounted to 3.65.

As to `O=C1c2cccc(O)c2C(=O)c2c(O)cc(CO)cc21` [ALOE-EMODIN], the logP turned out to be 2.62.

The compound `O=C(O)c1cc(O)c2c(c1)C(=O)c1cccc(O)c1C2=O` [RHEIN] registered a lipophilicity (logP) of 2.37.

These data come from ChEMBL document CHEMBL1136579, “Determination of active components in rhubarb and study of their hydrophobicity by micellar electrokinetic chromatography” (Bioorg Med Chem Lett, 2003).
